In patent US10202370B2, “Benzimidazole derivatives as selective proteine kinase inhibitors” (AB SCIENCE, priority 2013, dated 2019) one finds IC50 data, which are given here for 25 molecules.

Some results are limits rather than exact numbers.

In general, IC50 refers to the concentration that gives 50% inhibition. A high value points to lower potency.

The assay deals with c-kit WT (Homo sapiens (Human), UniProt P10721). In words: Proliferation assay (CellTiter-Blue) on BaF3 Kit WT cell line. As to conditions: BaF3 Kit WT cell line (murine Ba/F3 expressing Human Kit WT, with murine SCF), 48 hours. It is filed as cell-based. Put shortly: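 Ba/F3 cells expressing human Kit WT, maintained in RPMI/10% FCS with 250 ng/ml murine SCF, were seeded at 2.10^4 cells/well and exposed to ½ serial dilutions (0–10 μM) for 48 h at 37° C. Viability was measured by CellTiter-Blue fluorescence (544Ex/590Em, 4 h) in triplicate as % of untreated proliferation.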
Chain of c-kit WT (P10721 26-976): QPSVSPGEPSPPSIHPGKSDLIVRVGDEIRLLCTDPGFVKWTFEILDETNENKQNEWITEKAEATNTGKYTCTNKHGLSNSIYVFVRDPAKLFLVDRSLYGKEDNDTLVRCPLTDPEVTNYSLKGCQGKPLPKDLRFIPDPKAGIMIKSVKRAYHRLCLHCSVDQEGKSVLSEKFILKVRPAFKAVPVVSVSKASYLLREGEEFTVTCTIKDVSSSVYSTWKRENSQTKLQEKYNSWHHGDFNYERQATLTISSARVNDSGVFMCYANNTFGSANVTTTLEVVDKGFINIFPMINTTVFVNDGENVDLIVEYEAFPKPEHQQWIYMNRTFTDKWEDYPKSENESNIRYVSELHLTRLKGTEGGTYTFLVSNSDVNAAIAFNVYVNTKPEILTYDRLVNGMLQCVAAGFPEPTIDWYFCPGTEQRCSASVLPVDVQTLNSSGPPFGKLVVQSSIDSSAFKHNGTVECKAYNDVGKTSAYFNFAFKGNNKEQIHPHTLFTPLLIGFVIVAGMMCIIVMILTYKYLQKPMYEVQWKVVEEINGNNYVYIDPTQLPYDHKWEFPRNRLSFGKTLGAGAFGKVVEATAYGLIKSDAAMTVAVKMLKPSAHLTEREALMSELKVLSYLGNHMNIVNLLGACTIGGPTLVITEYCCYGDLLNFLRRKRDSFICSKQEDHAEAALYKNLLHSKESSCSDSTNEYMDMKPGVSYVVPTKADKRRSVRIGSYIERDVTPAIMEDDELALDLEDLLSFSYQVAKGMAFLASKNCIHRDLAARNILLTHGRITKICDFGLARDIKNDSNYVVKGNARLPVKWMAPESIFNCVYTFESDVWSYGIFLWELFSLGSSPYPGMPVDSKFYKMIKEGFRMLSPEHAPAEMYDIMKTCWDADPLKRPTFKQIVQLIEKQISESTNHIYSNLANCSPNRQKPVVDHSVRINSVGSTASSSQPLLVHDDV
The molecule `Cc1cc2nc(-c3cccc(C(F)F)c3)[nH]c2cc1Nc1nc(-c2ccc(C#N)cc2)cs1` [Compound 069, 4-{2-[2-(3-Difluoromethyl-phenyl)-6-methyl-3H-benzoimidazol-5-ylamino]-thiazol-4-yl}-benzonitrile] yielded a concentration for half-maximal inhibition (IC50) of at most 1000 nM.

Regarding `Cc1cc2nc(-c3cccc(C(F)(F)F)c3)[nH]c2cc1Nc1ncc(-c2cccnc2)o1` [Compound 007, [6-Methyl-2-(3-trifluoromethyl-phenyl)-3H-benzoimidazol-5-yl]-(5-pyridin-3-yl-oxazol-2-yl)-amine], the IC50 was in the range of 1000 to 10000 nM.

`Cc1cc2nc(-c3ccc(C(F)(F)F)cc3)[nH]c2cc1Nc1nc(-c2cccnc2)cs1` [Compound 021, [6-Methyl-2-(4-trifluoromethyl-phenyl)-3H-benzoimidazol-5-yl]-(4-pyridin-3-yl-thiazol-2-yl)-amine] returned an IC50 of 1000 to 10000 nM.

With `Cc1cc2nc(-c3cc(CN4CCCCC4)cc(C(F)(F)F)c3)[nH]c2cc1Nc1nc(-c2cccnc2)cs1` [Compound 024, [6-Methyl-2-(3-piperidin-1-ylmethyl-5-trifluoromethyl-phenyl)-3H-benzoimidazol-5-yl]-(4-pyridin-3-yl-thiazol-2-yl)-amine], the 50% inhibitory concentration (IC50) is at most 1000 nM.

`Cc1cc2nc(CN3CCOCC3)[nH]c2cc1Nc1ncc(-c2ccncc2)o1` [Compound 055, (6-Methyl-2-morpholin-4-ylmethyl-3H-benzoimidazol-5-yl)-(5-pyridin-4-yl-oxazol-2-yl)-amine] had an IC50 of 1000 to 10000 nM.

Molecule `Cc1cc2nc(-c3cccc(N(C)C)c3)[nH]c2cc1Nc1nc(-c2cccnc2)cs1` [Compound 132, [2-(3-Dimethylamino-phenyl)-6-methyl-3H-benzoimidazol-5-yl]-(4-pyridin-3-yl-thiazol-2-yl)-amine] showed an IC50 of at most 1000 nM.

`Cc1cc2nc(-c3cccc(C(F)F)c3)[nH]c2cc1Nc1nc(-c2cccc(C#N)c2)cs1` [Compound 127, 3-{2-[2-(3-Difluoromethyl-phenyl)-6-methyl-3H-benzoimidazol-5-ylamino]-thiazol-4-yl}-benzonitrile] registered a 50% inhibitory concentration (IC50) of at most 1000 nM.

In turn, `Cc1cc2nc(-c3ccc(C)c(C(F)(F)F)c3)[nH]c2cc1Nc1nc(-c2cccnc2)cs1` [Compound 056, [6-Methyl-2-(4-methyl-3-trifluoromethyl-phenyl)-3H-benzoimidazol-5-yl]-(4-pyridin-3-yl-thiazol-2-yl)-amine] had an IC50 of at most 1000 nM.

Molecule `Cc1cc2nc(-c3cc(F)cc(C(F)(F)F)c3)[nH]c2cc1Nc1nc(-c2cccnc2)cs1` [Compound 058, [2-(3-Fluoro-5-trifluoromethyl-phenyl)-6-methyl-3H-benzoimidazol-5-yl]-(4-pyridin-3-yl-thiazol-2-yl)-amine] registered a 50% inhibitory concentration (IC50) of at most 1000 nM.

For `Cc1cc2nc(-c3ccc(CN4CCN(C)CC4)cc3)[nH]c2cc1Nc1nccc(-c2cccnc2)n1` [Compound 009, {6-Methyl-2-[4-(4-methyl-piperazin-1-ylmethyl)-phenyl]-3H-benzoimidazol-5-yl}-(4-pyridin-3-yl-pyrimidin-2-yl)-amine], the half-maximal inhibitory concentration (IC50) lay within 1000 to 10000 nM.

In the case of `C#Cc1cccc(-c2nc3cc(Nc4nc(-c5ccc(C#N)cc5)cs4)c(C)cc3[nH]2)c1` [Compound 141, 4-{2-[2-(3-Ethynyl-phenyl)-6-methyl-1H-benzoimidazol-5-ylamino]-thiazol-4-yl}-benzonitrile], the IC50 was at most 1000 nM.

For the molecule `Cc1cc2[nH]c(-c3cccc(C(C)(C)C)c3)nc2cc1Nc1nc(-c2cccnc2)cs1` [Compound 137, [2-(3-tert-Butyl-phenyl)-6-methyl-1H-benzoimidazol-5-yl]-(4-pyridin-3-yl-thiazol-2-yl)-amine], the concentration for half-maximal inhibition (IC50) is at most 1000 nM.

As to `Cc1cc2nc(-c3cnc4ccccc4c3)[nH]c2cc1Nc1nccc(-c2cccnc2)n1` [Compound 017, (6-Methyl-2-quinolin-3-yl-3H-benzoimidazol-5-yl)-(4-pyridin-3-yl-pyrimidin-2-yl)-amine], the concentration for half-maximal inhibition (IC50) is 1000 to 10000 nM.

For `Cc1cc2c(cc1Nc1nc(-c3cccnc3)cs1)nc(-c1ccc(C(F)F)cc1)n2C` [Compound 093, [2-(4-Difluoromethyl-phenyl)-1,6-dimethyl-1H-benzoimidazol-5-yl]-(4-pyridin-3-yl-thiazol-2-yl)-amine], the IC50 was at most 1000 nM.

For `Cc1cccc(-c2nc3cc(C)c(Nc4nc(-c5cncnc5)cs4)cc3[nH]2)c1` [Compound 066, (6-Methyl-2-m-tolyl-1H-benzoimidazol-5-yl)-(4-pyrimidin-5-yl-thiazol-2-yl)-amine], the IC50 was in the range of 1000 to 10000 nM.

`Cc1cc2nc(-c3ccc(CN4CCN(C)CC4)cc3)[nH]c2cc1Nc1nc(-c2cccnc2)cs1` [Compound 003, {6-Methyl-2-[4-(4-methyl-piperazin-1-ylmethyl)-phenyl]-3H-benzoimidazol-5-yl}-(4-pyridin-3-yl-thiazol-2-yl)-amine] returned an IC50 of at most 1000 nM.

`FC(F)(F)Oc1cccc(-c2nc3cc(Nc4nc(-c5cccnc5)cs4)ccc3[nH]2)c1` [Compound 089, (4-Pyridin-3-yl-thiazol-2-yl)-[2-(3-trifluoromethoxy-phenyl)-1H-benzoimidazol-5-yl]-amine] had a 50% inhibitory concentration (IC50) of at most 1000 nM.

Molecule `Cc1cc2c(cc1Nc1nc(-c3ccc(C#N)cc3)cs1)nc(-c1cc(F)cc(C(F)(F)F)c1)n2C` [Compound 138, 4-{2-[2-(3-Fluoro-5-trifluoromethyl-phenyl)-1,6-dimethyl-1H-benzoimidazol-5-ylamino]-thiazol-4-yl}-benzonitrile] came in with an IC50 of at most 1000 nM.

In the case of `Cc1cc2c(cc1Nc1nc(-c3ccncc3)cs1)nc(-c1cccc(C(F)(F)F)c1)n2C(C)C` [Compound 101, [1-Isopropyl-6-methyl-2-(3-trifluoromethyl-phenyl)-1H-benzoimidazol-5-yl]-(4-pyridin-4-yl-thiazol-2-yl)-amine], the concentration for half-maximal inhibition (IC50) was at most 1000 nM.

Regarding `Cc1cc2nc(-c3cccc(C(F)(F)F)c3)[nH]c2cc1Nc1nccc(-c2cccnc2)n1` [Compound 008], the IC50 is at most 1000 nM.

With `Cc1cc2nc(-c3cccc(CN4CCOCC4)c3)[nH]c2cc1Nc1nccc(-c2cccnc2)n1` [Compound 018, [6-Methyl-2-(3-morpholin-4-ylmethyl-phenyl)-3H-benzoimidazol-5-yl]-(4-pyridin-3-yl-pyrimidin-2-yl)-amine], the half-inhibitory concentration (IC50) was 1000 to 10000 nM.

`Cc1cc2nc(-c3ccc(CN4CCN(C)CC4)cc3)[nH]c2cc1Nc1nc(-c2cncnc2)cs1` [Compound 065, {6-Methyl-2-[4-(4-methyl-piperazin-1-ylmethyl)-phenyl]-3H-benzoimidazol-5-yl}-(4-pyrimidin-5-yl-thiazol-2-yl)-amine] registered a concentration for half-maximal inhibition (IC50) of 1000 to 10000 nM.

`COc1cccc(-c2nc3cc(Nc4nc(-c5cccnc5)cs4)c(C)cc3[nH]2)c1` [Compound 126, [2-(3-Methoxy-phenyl)-6-methyl-1H-benzoimidazol-5-yl]-(4-pyridin-3-yl-thiazol-2-yl)-amine] had an IC50 of at most 1000 nM.

Regarding `Cc1cc2c(cc1Nc1nc(-c3cccnc3)cs1)nc(-c1cccc(C(C)C)c1)n2C` [Compound 140, [2-(3-Isopropyl-phenyl)-1,6-dimethyl-1H-benzoimidazol-5-yl]-(4-pyridin-3-yl-thiazol-2-yl)-amine], the IC50 was at most 1000 nM.

`Cc1cc2nc(-c3cccc(OC(F)(F)F)c3)[nH]c2cc1Nc1nc(-c2ccc(C(N)=O)cc2)cs1` [Compound 073, 4-{2-[6-Methyl-2-(3-trifluoromethoxy-phenyl)-3H-benzoimidazol-5-ylamino]-thiazol-4-yl}-benzamide] returned an IC50 of at most 1000 nM.
